This note sets out measurements from paper PMC11984924, “Dipeptidic Phosphonates: Potent Inhibitors of Pseudomonas aeruginosa Elastase B Showing Efficacy in a Murine Keratitis Model” (Advanced Science, 2025).

One series relates to 44 key molecular targets. In words: SafetyScreen44 in vitro panel (whole panel). Details: species or system human. Particulars: 100 µM. From the text:
Moreover, we explored the safety profile of frontrunner (R)‐30 in more detail in order to detect additional crucial off‐target interactions. For this purpose, we employed the SafetyScreen44 in vitro panel comprising selected binding, inhibition and uptake assays.^[ [35] ^] The panel is a specialized pharmacological profiling tool that tests compounds against 44 key molecular targets, aiming to identify potential safety risks early in drug discovery. […]
The off-target Safety Screen44TM was performed by the CRO Eurofins Cerep SA (Celle-
L'Evescault, France) according to their protocols.[13] […]
MMP-1 MMP-2 MMP-3 TACE (ADAM17)
Compound [% inhibition at [% inhibition at [% inhibition at [% inhibition at 100

Series [1] is described as follows: Tolerability study in male CD1 mice, repeated TID intravenous dosing. Particulars: mouse, 300 and 600 mg/kg/day, 3 days. In kind it is in vivo. As to the method:
(§1) Table S8: Percent (%) inhibition of the metabolic activity of three human cell lines HepG2 (hepatocellular carcinoma cells), HEK293 (human embryonic kidney 293 cells) and A549 (lung carcinoma epithelial cells). Results are means and SD of at least two independent ex periments.
(§2) 3.10 Evaluation of Zebrafish embryo toxicity
(§3) The experiment was performed according to a procedure described in the literature with minor modifications using zebrafish embryos of the AB wild -type line at 1 day post fertilization (dpf). A detailed protocol has been given in our recent publication.[16]
(§4) Starting exposure ar 2 dpf. Ten larvae were tested for each condition. Dpf: days post fertilization.
(§5) 3.11 Tolerability study in male CD1 mice
(§6) This in vivo experiment was carried out at the CRO Selvita (Zagreb, Croatia). The study was performed in an AAALAC I- approved Facility. The standard study plan relating to this study was reviewed by the Ethics Committee (CARE- Zagreb) as required by International Laws/Regulations and Croatian Low on Animal Welfare (“The Animal Protection Act”, Official Gazette, NN 135/06 and NN 37/13) and Animal Welfare Officer. Animals were kept in solid […]
The observations and examinations that were made, comprise clinical signs, body weight, food consumption, macroscopy at termination and organ weights. Mortality was recorded twice a day, i.e. in the morning and at the end of the working day.

The target in a further series is T1, LasB (Pseudomonas aeruginosa, UniProt Q02RJ6).
T1 construct: made in house
T1 sequence (Q02RJ6 198-498): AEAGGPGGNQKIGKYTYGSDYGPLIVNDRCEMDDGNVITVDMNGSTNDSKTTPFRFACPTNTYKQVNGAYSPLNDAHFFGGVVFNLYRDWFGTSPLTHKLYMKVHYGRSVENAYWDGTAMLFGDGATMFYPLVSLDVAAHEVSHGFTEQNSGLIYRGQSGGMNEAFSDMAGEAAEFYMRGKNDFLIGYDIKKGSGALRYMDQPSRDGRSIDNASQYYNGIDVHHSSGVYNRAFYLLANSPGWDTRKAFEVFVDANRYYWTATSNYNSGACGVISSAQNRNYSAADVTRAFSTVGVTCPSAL
Description: KC/LasB co-incubation study (ELISA). In kind it is biochemical. Particulars: 100 µM (R)-30, 100 nM LasB, 10 min. As to the method: Figure S15: MS-based quantification of (R)-30 levels in serum and eye homogenate. Concentrations were determined after single treatment ((R)-30 alone) or after combination with Meropenem.
To test whether KC might be a substrate for LasB, an ELISA was used to quantify KC levels after co-incubation with LasB. Briefly, 500 pg/ml of the recombinant murine KC standard (R&D part 840327) was incubated for 10 minutes in PBS supplemented with 1% BSA and 0.1% DMSO (vehicle control), LasB (100 nM), (R)-30 (100 µM), or a combination of both. Detection of KC and absorbance measurements were performed as described above (3.11).
(also on this page, place not known: Serum Eye homogenate 100 1000 concentrations Concentration [ng/mL] Meropenem + (R)-30 (R)-30 , 10 LasB (R)-30)
(§7) (1 picture or pasted object on this page, not shown here)

Series [2] in a line: Stability in minipig liver microsomes. It is filed as in vitro ADME. Particulars: Göttingen, read-out: Minipig Liver Microsomes t1/2. As for the experimental part: (§8) Samples were stored on ice until the end of the incubation and precipitated protein was removed by centrifugation (15 min, 4 °C, 4,000 g). Concentration of the remaining test […]
(§9) compound at the different time points was analyzed by HPLC-MS/MS (TSQ Quantum Access […]
(§10) MAX, Thermo Fisher, Dreieich, Germany) and used to determine half -life (t1/2) and intrinsic […]
(§11) Species profiling was conducted as above using 0.5 mg/mL pooled mouse, rat or minipig liver microsomes (Xenotech, Kansas City, USA) with 2 mM NADPH and 10 mM MgCl2 and testosterone, verapamil and ketoconazole as reference compounds. […]
(§12) Thermo Fisher, Dreieich, Germany) and used to determine half-life (t1/2).
(§13) Table S2: Additional in vitro ADMET data for selected dipeptides. n.d.: not determined.
(§14) Kinetic Liver S9 Clint [µL/mg/min] Plasma t1/2 [min] LogD7.4 […]
(§15) pH 7.4 [µM] Mouse Human Mouse Human

Series [3] in a line: Stability in rat liver microsomes. The conditions noted are these: Wistar, read-out: Rat Liver Microsomes t1/2. In kind it is in vitro ADME. As for the experimental part:
as §8, §9, §10, §11, §12, §13, §14, §15

Series [4] in a line: Plasma stability, Wistar rat. It is filed as in vitro ADME. The conditions noted are these: read-out: Rat Plasma t1/2. As for the experimental part: To determine stability in plasma, the compound (1 µM) was incubated with pooled CD -1 […]
mouse/human/Wistar rat or Göttingen minipig plasma (Neo Biotech, Nanterre, France).
Samples were taken by mixing aliquots with 4 volumes of acetonitrile containing internal […]
standard (125 nM diphenhydramine). The plasma stability of procain, propantheline and diltiazem were determined in parallel to confirm the enzymatic activity. Samples were stored […]
on ice until the end of the incubation and precipitated protein was removed by centrifugation […]
(15 min, 4 °C, 4,000 g, two centrifugation steps). Concentration of the remaining test compound at the different time points was analyzed by HPLC-MS/MS (TSQ Quantum Access MAX, […]
as §12, §13, §14, §15

For a further series, the system named is zebrafish embryos. In words: Zebrafish embryo toxicity. Particulars: up to 100 µM, up to five days post fertilization. In kind it is in vivo. As to the method: as §1, §2, §3, §4, §5, §6
bottom cages ([…] S.p A., Italy, Type III polysulphone cage); 425 mm x 266 mm x 180 mm; 3 animals in each cage. The animals were kept on 4 cm thick layer of corn cob grit, […]
as §7

Take `CC(=O)c1ccc(NC(=O)[C@@H](NC(=O)[C@@H](CC(C)C)P(=O)(O)O)C(C)C)cc1` [(R)‐30]: the “SafetyScreen44: number of targets inhibited” value in the series on 44 key molecular targets is “ten targets by >50%”. The “mortality, body weight, clinical signs” value in series [1] is recorded as “no treatment–related mortality, nor effects on body weight or clinical signs”. Moreover, the “proteolytic activity of LasB on KC” value on LasB is recorded as “effectively blocked”.
In the case of `CC(=O)c1ccc(NC(=O)[C@@H](NC(=O)C(CC(C)C)P(=O)(O)O)C(C)C)cc1` (stereo partly shown) [compound 30], the half-life at 1 µM in series [2] is more than 2 h; in series [3], more than 2 h; in series [4], more than 4 h. Besides, the Zebrafish embryo toxicity entry in the series with zebrafish embryos is “no signs of toxicity”.
